According to patent publication US20100144626A1, “Treatment of Multi-Drug Resistant Bacterial Infections” (priority 2006, published 2010):
≈ marks a conversion by molar mass, not a printed value. Read-outs that look alike come from different tables or passages of the source.

Assays:
[1] = system: Acinetobacter Baumannii ATCC 19606; assay: MIC, agar dilution (BSAC guidelines); format: cell-based
Method: (§1) In example experiments miconazole nitrate, was dissolved in methanol and econazole nitrate and clotrimazole were dissolved in DMSO and methanol respectively. Other solvents that may be used include caster oil, pyridine, DMSO and 0.9% saline. For IV administration agents may be solubilised in polyethoxylated caster oil, or cyclodextrins such as sulfobutylether7-βcyclodextrin or hydroxypropyl-β-cyclodextrin and lactic acid. Minimum inhibitory concentrations (MICs) of a range of clinical and control bacterial organisms were measured according to BSAC (British Society for Antimicrobial Chemotherapy) guidelines, described briefly as follows;
(§2) Preparation of Agar Plates and Broths
(§3) Stock solutions of each agent were prepared using the formula:
(§4) Where P=μg of active compound per mg (μg/mg) • V=volume required (mL) • C=final concentration of solution (mg/L) • W=weight of agent (mg) to be dissolved in volume V (mL)
(§5) Stock solutions were prepared at concentrations of 1000 mg/L and 100 mg/L. The appropriate amounts of each stock solution were added to separate Petri dishes give the following final concentrations (after the addition of 20 mL molten agar): 128, 64, 32, 16, 8, 4, 2, 1, 0.5, 0.25, 0.12, 0.06, 0.03, 0.015 mg/L.
(§6) Volumes (20 mL) of cooled molten IST agar (oxoid) was added to each Petri dish and mixed by swirling.
(§7) After drying, the plates were stored at 4° C. and protected from light. Plates were used on the day of preparation.
(§8) The test organisms were grown overnight in 5 mL IST broth. Using a dilution in 0.9% saline of 1:500 for Gram-negative organisms and 1:100 for Gram-positive organisms, the appropriate agar plates were inoculated using a multipoint inoculator.
(§9) Plates were incubated at 37° C. in air for 18-20 hours.
(§10) The MIC is the minimum amount of an antibiotic at which there is no visible growth of bacteria. Tiny single colonies or faint hazes were not counted as growth.

[2] = system: Enterococcus faecalis (VRE) E8 VanA; assay: MIC, agar dilution (BSAC guidelines); format: cell-based; settings: E. faecalis (VRE) E8 VanA
Method: as §1, §2, §3, §4, §5, §6, §7, §8, §9, §10

[3] = system: Enterococcus faecium (VRE) E15 VanA ATCC 4147; assay: MIC, agar dilution (BSAC guidelines); format: cell-based
Method: as §1, §2, §3, §4, §5, §6, §7, §8, §9, §10

[4] = system: Enterococcus faecium (VRE) E19 UAA/522 VanB; assay: MIC, agar dilution (BSAC guidelines); format: cell-based; settings: E. faecium (VRE) E19 UAA/522 VanB
Method: as §1, §2, §3, §4, §5, §6, §7, §8, §9, §10

[5] = system: Enterococcus faecium (VRE) NCTC 7171; assay: MIC, agar dilution (BSAC guidelines); format: cell-based
Method: as §1, §2, §3, §4, §5, §6, §7, §8, §9, §10

[6] = system: Enterococcus faecium (VRE) VanR B145344C LFE; assay: MIC, agar dilution (BSAC guidelines); format: cell-based; settings: E. faecium (VRE) VanR B145344C LFE
Method: as §1, §2, §3, §4, §5, §6, §7, §8, §9, §10

[7] = system: Enterococcus gallinarum (VRE) E1 NCTC 12359 VanC1; assay: MIC, agar dilution (BSAC guidelines); format: cell-based
Method: as §1, §2, §3, §4, §5, §6, §7, §8, §9, §10

[8] = system: Escherichia coli NCTC 10418; assay: MIC, agar dilution (BSAC guidelines); format: cell-based
Method: as §1, §2, §3, §4, §5, §6, §7, §8, §9, §10

[9] = system: Klebsiella pneumoniae ESBL 700603; assay: MIC, agar dilution (BSAC guidelines); format: cell-based
Method: as §1, §2, §3, §4, §5, §6, §7, §8, §9, §10

[10] = system: Pseudomonas aeruginosa NCTC 10662; assay: MIC, agar dilution (BSAC guidelines); format: cell-based
Method: as §1, §2, §3, §4, §5, §6, §7, §8, §9, §10

[11] = system: Staphylococcus epidermidis ATCC 1228; assay: MIC, agar dilution (BSAC guidelines); format: cell-based
Method: as §1, §2, §3, §4, §5, §6, §7, §8, §9, §10

[12] = system: VISA, strain USA/VISA 5827; assay: MIC, agar dilution (BSAC guidelines); format: cell-based; settings: Staphylococcus aureus
Method: as §1, §2, §3, §4, §5, §6, §7, §8, §9, §10

[13] = system: VISA, strain USA/VISA 5836; assay: MIC, agar dilution (BSAC guidelines); format: cell-based; settings: Staphylococcus aureus
Method: as §1, §2, §3, §4, §5, §6, §7, §8, §9, §10

[14] = system: VISA, strain VISA 3900 UK; assay: MIC, agar dilution (BSAC guidelines); format: cell-based; settings: Staphylococcus aureus
Method: as §1, §2, §3, §4, §5, §6, §7, §8, §9, §10

[15] = system: clinical MRSA and VISA strains; assay: MICs for clinical MRSA and VISA strains; format: cell-based; settings: Staphylococcus aureus; range over strains; read-out: MICs for the clinical MRSA and VISA strains tested
Method: as §1, §5
The test organisms were grown overnight in 5 mL IST broth. Using a dilution in 0.9% saline of 1:500 for Gram-negative organisms and 1:100 for Gram-positive organisms, the appropriate agar plates were inoculated using a multipoint inoculator. […]
as §10

Gram-negative organisms = assay: Growth inhibition, summary of MIC testing; format: cell-based; settings: summary in words
Method: as §1, §5, §8, §9, §10

[16] = system: strains of Staphylococci and Enterococci with reduced susceptibility to vancomycin; assay: Growth inhibition, summary of MIC testing; format: cell-based; settings: summary in words
Method: as §1, §5, §8, §9, §10

[17] = in vivo; cited from earlier work
[18] = replicate 1, read-out: Minimum inhibitory concentration (MIC)
[19] = replicate 2, read-out: Minimum inhibitory concentration (MIC)
[20] = replicate 3, read-out: Minimum inhibitory concentration (MIC)

## Clc1ccc(COC(Cn2ccnc2)c2ccc(Cl)cc2Cl)c(Cl)c1 (stereo not shown) [Miconazole, 1-[2-(2,4-dichlorophenyl)-2-[(2,4-dichlorophenyl)methoxy]ethyl]-1H-imidazole]
[1]; ATCC19606, Acinetobacter Baumannii ATCC 19606, replicate 1, read-out: Minimum inhibitory concentration (MIC)
  MIC: > 10 µg/mL
[1]; ATCC19606, Acinetobacter Baumannii ATCC 19606, replicate 2, read-out: Minimum inhibitory concentration (MIC)
  MIC: > 6 µg/mL
[1]; ATCC19606, Acinetobacter Baumannii ATCC 19606, replicate 3, read-out: Minimum inhibitory concentration (MIC)
  MIC: > 6 µg/mL
[2]; [18]
  MIC: 5 µg/mL (≈ 12 µM)
[2]; [19]
  MIC: > 6 µg/mL
[2]; [20]
  MIC: > 6 µg/mL
[3]; E. faecium (VRE) E15 VanA ATCC 4147, replicate 1, read-out: Minimum inhibitory concentration (MIC)
  MIC: 1.5 µg/mL (≈ 3.6 µM)
[3]; E. faecium (VRE) E15 VanA ATCC 4147, replicate 2, read-out: Minimum inhibitory concentration (MIC)
  MIC: 3 µg/mL (≈ 7.21 µM)
[3]; E. faecium (VRE) E15 VanA ATCC 4147, replicate 3, read-out: Minimum inhibitory concentration (MIC)
  MIC: 3 µg/mL (≈ 7.21 µM)
[4]; [18]
  MIC: 1 µg/mL (≈ 2.4 µM)
[4]; [19]
  MIC: 2.5 µg/mL (≈ 6.01 µM)
[4]; [20]
  MIC: 2.5 µg/mL (≈ 6.01 µM)
[5]; E. faecium (VRE) NCTC 7171, replicate 1, read-out: Minimum inhibitory concentration (MIC)
  MIC: 3.5 µg/mL (≈ 8.41 µM)
[5]; E. faecium (VRE) NCTC 7171, replicate 2, read-out: Minimum inhibitory concentration (MIC)
  MIC: 6 µg/mL (≈ 14.4 µM)
[5]; E. faecium (VRE) NCTC 7171, replicate 3, read-out: Minimum inhibitory concentration (MIC)
  MIC: 5.5 µg/mL (≈ 13.2 µM)
[6]; [18]
  MIC: 2.5 µg/mL (≈ 6.01 µM)
[6]; [19]
  MIC: 3 µg/mL (≈ 7.21 µM)
[6]; [20]
  MIC: 2.5 µg/mL (≈ 6.01 µM)
[7]; E. gallinarum (VRE) E1 NCTC 12359 VanC1, replicate 1, read-out: Minimum inhibitory concentration (MIC)
  MIC: 2 µg/mL (≈ 4.81 µM)
[7]; E. gallinarum (VRE) E1 NCTC 12359 VanC1, replicate 2, read-out: Minimum inhibitory concentration (MIC)
  MIC: 3 µg/mL (≈ 7.21 µM)
[7]; E. gallinarum (VRE) E1 NCTC 12359 VanC1, replicate 3, read-out: Minimum inhibitory concentration (MIC)
  MIC: 3.5 µg/mL (≈ 8.41 µM)
[8]; NCTC10418, E. coli NCTC 10418, replicate 1, read-out: Minimum inhibitory concentration (MIC)
  MIC: > 10 µg/mL
[8]; NCTC10418, E. coli NCTC 10418, replicate 2, read-out: Minimum inhibitory concentration (MIC)
  MIC: > 6 µg/mL
[8]; NCTC10418, E. coli NCTC 10418, replicate 3, read-out: Minimum inhibitory concentration (MIC)
  MIC: > 6 µg/mL
[9]; ESBL700603, K. pneumoniae ESBL 700603, replicate 1, read-out: Minimum inhibitory concentration (MIC)
  MIC: > 10 µg/mL
[9]; ESBL700603, K. pneumoniae ESBL 700603, replicate 2, read-out: Minimum inhibitory concentration (MIC)
  MIC: > 6 µg/mL
[9]; ESBL700603, K. pneumoniae ESBL 700603, replicate 3, read-out: Minimum inhibitory concentration (MIC)
  MIC: > 6 µg/mL
[10]; NCTC10662, P. aeruginosa NCTC 10662, replicate 1, read-out: Minimum inhibitory concentration (MIC)
  MIC: > 10 µg/mL
[10]; NCTC10662, P. aeruginosa NCTC 10662, replicate 2, read-out: Minimum inhibitory concentration (MIC)
  MIC: > 6 µg/mL
[10]; NCTC10662, P. aeruginosa NCTC 10662, replicate 3, read-out: Minimum inhibitory concentration (MIC)
  MIC: > 6 µg/mL
[11]; ATCC1228, S. epidermidis ATCC 1228, replicate 1, read-out: Minimum inhibitory concentration (MIC)
  MIC: 2.5 µg/mL (≈ 6.01 µM)
[11]; ATCC1228, S. epidermidis ATCC 1228, replicate 2, read-out: Minimum inhibitory concentration (MIC)
  MIC: 2 µg/mL (≈ 4.81 µM)
[11]; ATCC1228, S. epidermidis ATCC 1228, replicate 3, read-out: Minimum inhibitory concentration (MIC)
  MIC: 2 µg/mL (≈ 4.81 µM)
[12]; [18]
  MIC: 1 µg/mL (≈ 2.4 µM)
[12]; [19]
  MIC: 2 µg/mL (≈ 4.81 µM)
[12]; [20]
  MIC: 1 µg/mL (≈ 2.4 µM)
[13]; [18]
  MIC: 1 µg/mL (≈ 2.4 µM)
[13]; [19]
  MIC: 2.5 µg/mL (≈ 6.01 µM)
[13]; [20]
  MIC: 2.5 µg/mL (≈ 6.01 µM)
[14]; [18]
  MIC: 1 µg/mL (≈ 2.4 µM)
[14]; [19]
  MIC: 1.5 µg/mL (≈ 3.6 µM)
[14]; [20]
  MIC: 2 µg/mL (≈ 4.81 µM)
[15]
  MIC: 0.25 to 2 µg/mL (≈ 0.601 to 4.81 µM)
Gram-negative organisms
  activity against Gram-negative organisms: no significant activity
[16]
  activity against strains of Staphylococci and Enterococci with reduced susceptibility to vancomycin: good activity
[16]; listed as miconazole
  activity against strains of Staphylococci and Enterococci with reduced susceptibility to vancomycin: capable of inhibiting the growth
[17]
  biological half life, first phase of triphasic elimination: 0.4 hours
  biological half life, second phase of triphasic elimination: 2.1 hours
  biological half life, third phase of triphasic elimination: 24.1 hours
